Measured values as given in patent US20110135761A1, “ANTIMICROBIAL SUTURE FOR MEDICAL USE WITH GRAPEFRUIT EXTRACT, AND MANUFACTURING METHOD THEREOF” (Korea Institute of Ceramic Engineering and Technology, priority 2009, published 2011).

Assay type: physicochemical
Source text: The short degradation period refers that the biodegradation effect is high; it has advantage that the secondary infection due to the suture is decreased.

For “poly(glycolide-co-L-lactide) [PGLA suture]”, the “degradation behavior (in words)” value was “degradation of the suture was quickly progressed”.
